Structures are written as SMILES. A value given as a limit tells only on which side of the number the result lay.

This experiment is described as follows: Inhibition of HIV integrase-mediated strand transfer activity. Also on record: species or system Human immunodeficiency virus.
The term IC50 denotes the concentration needed to halve the response being measured. `O=C(O)/C(O)=C/C(=O)N1CCc2ccccc21` had an IC50 of 200 nM.

For the compound `O=C(O)/C(O)=C/C(=O)N1CCc2cc(Cl)c(Cl)cc21`, the IC50 worked out at 20 nM.

`O=C(/C=C(\O)C(=O)O)Nc1ccc(F)c(F)c1`: the IC50 was found to be 2400 nM.

`O=C(O)/C(O)=C/c1nc2ccc(Cl)cc2o1` yielded an IC50 of over 100000 nM.

In the case of `O=C(/C=C(\O)C(=O)O)Cc1ccccc1`, the 50% inhibitory concentration (IC50) was over 200000 nM.

`O=C(/C=C(\O)C(=O)O)Nc1ccc(Cl)c(Cl)c1` displayed an IC50 of 160 nM.

In turn, `O=C(O)/C(O)=C/C(=O)N1CCc2cc(F)ccc21` gave an IC50 of 230 nM.

Turning to `O=C(/C=C(\O)C(=O)O)Nc1ccc(Cl)cc1`, the IC50 is 5600 nM.

On to `O=C(/C=C(\O)C(=O)O)Nc1ccc(F)cc1`, for which the IC50 came out at 13400 nM.

In turn, `CN(C(=O)/C=C(\O)C(=O)O)c1cccc(Cl)c1` showed an IC50 of over 125000 nM.

In the case of `O=C(/C=C(\O)C(=O)O)Nc1cccc(Cl)c1`, the half-inhibitory concentration (IC50) is 700 nM.
